Measured values reported in patent US8802128B2, “Steroid-containing sustained release intraocular implants and related methods” (Allergan, Inc., priority 2006, dated 2014).

What was measured:
[1] = Relative water solubility of the steroids; type: physicochemical
[2] = in vivo; cited from earlier work

Row | Structure (SMILES) | water solubility relative to beclomethasone dipropionate (times more soluble) [1] | eyes with increase in brown pigment in the iris [2]
1 | CC1(C)O[C@@H]2C[C@H]3[C@@H]4CCC5=CC(=O)C=C[C@]5(C)[C@@]4(F)[C@@H](O)C[C@]3(C)[C@]2(C(=O)CO)O1 [triamcinolone acetonide] | about 150 times | 
2 | CC(C)OC(=O)CCC/C=C\C[C@@H]1[C@@H](CC[C@@H](O)CCc2ccccc2)[C@H](O)C[C@@H]1O [latanoprost] |  | 5-15 % of human eyes
